Assays:
Assay type in all cases: in vivo
[1] = test system: Echinochloa crus-galli (ECHCG); test: Biological Example 1 glasshouse screen, post-emergence herbicidal activity; details: 312 h, application rate 250 g/ha, evaluated after 13 days, read-out: ECHCG percentage phytotoxicity
Experimental: (§1) Seeds of a variety of test species were sown in standard soil in pots. After cultivation for one day (pre-emergence) or after 8 days cultivation (post-emergence) under controlled conditions in a glasshouse (at 24/16°C., day/night; 14 hours light; 65% humidity), the plants were sprayed with an aqueous spray solution derived from the formulation of the “technical”(i.e. unformulated) active ingredient in acetone/water (50:50) solution containing 0.5% Tween 20 (polyoxyethylene sorbitan monolaurate, CAS Registry Number 9005-64-5). The test plants were then grown in a glasshouse under controlled conditions in a glasshouse (at 24/16°C., day/night; 14 hours light; 65% humidity) and watered twice daily. After 13 days for pre- or post-emergence, the test was evaluated visually, and an assessed percentage phytotoxicity score given for each herbicidal application on each plant/weed species (with 100%=total damage to plant; 0%=no damage to plant).
(§2) Test plants: Alopecurus myosuroides (ALOMY), Setaria faberi (SETFA), Echinochloa crus-galli (ECHCG), Solanum nigrum (SOLNI), Amaranthus retroflexus (AMARE) and Ipomoea hederacea (IPOHE). ALOMY, SETFA and ECHCG are grassy monocotyledonous weeds. SOLNI, AMARE and IPOHE are dicotyledonous (broadleaved) weeds.
(§3) Test plants: Lolium perenne (LOLPE), Alopecurus myosuroides (ALOMY), Echinochloa crus-galli (ECHCG), and Avena fatua (AVEFA). All four of these are grassy monocotyledonous weeds.

[2] = test system: Alopecurus myosuroides (ALOMY); test: as above; details: 312 h, application rate 250 g/ha, evaluated after 13 days, read-out: ALOMY percentage phytotoxicity
Experimental: as §1, §2, §3

[3] = test system: Triticum aestivum, wheat (TRZAW); test: Biological Example 3 glasshouse screen, post-emergence, phytotoxicity on wheat; details: 360 h, 15 DAA, no safener, read-out: TRZAW percentage phytotoxicity
Experimental: (§4) Test Method: Seeds of a variety of test species are sown in standard soil in pots. After cultivation for one day (pre-emergence) or after 12 days cultivation (post-emergence) under controlled conditions in a glasshouse (warm climate species at 24/18°C., cool climate species at 20/16°C., both at day/night; 16 hours light; 65% humidity), the plants are sprayed with an aqueous spray solution derived from the formulation of the “technical”(i.e. unformulated) active ingredient dissolved in acetone plus IF50, at a 1:20 ratio of “technical”active ingredient to IF50. The IF50 contains about 10.56 weight % Emulsogen EL™(castor oil ethoxylate, CAS Registry number 61791-12-6), about 42.22 weight % N-methylpyrrolidone, and about 42.22 weight % DPG-Monoethyl ether (dipropylene glycol mono-ethyl ether). The adjuvant X-77 (a mixture of alkyl aryl polyoxyethylene glycols and free fatty acids in isopropanol, CAS Registry number 11097-66-8) is added to the aqueous spray solution to form a 0.2% v/v solution, before spraying onto the plants.
(§5) The test plants are then grown in a glasshouse under controlled conditions in a glasshouse (at 24/18°C. or 20/16°C., day/night; 16 hours light; 65% humidity) and watered twice daily. After 15 days after application of the herbicide (15 DAA) (for post-emergence), and after 20 DAA (for pre-emergence), the test is evaluated visually, and an assessed percentage phytotoxicity score is given for each herbicidal application on each plant/weed species (with 100%=total damage to plant; 0%=no damage to plant).
These give an approximate indication of the level of selectivity on wheat for these tested compounds, when a herbicide safener such as cloquintocet-mexyl is not used: […]

[4] = test system: Avena fatua, wild oats (AVEFA); test: Biological Example 3 glasshouse screen, post-emergence herbicidal activity; details: 360 h, 15 DAA, no safener, read-out: AVEFA percentage phytotoxicity
Experimental: as §4
as §5, with “plant). […]” for “plant).”

[5] = test system: Lolium perenne, perennial ryegrass (LOLPE); test: as above; details: 360 h, 15 DAA, no safener, read-out: LOLPE percentage phytotoxicity
Experimental: as §4
as §5, with “plant). […]” for “plant).”

[6] = test system: Echinochloa crus galli, barnyardgrass (ECHCG); test: as above; details: 360 h, 15 DAA, no safener, read-out: ECHCG percentage phytotoxicity
Experimental: as §4
as §5, with “plant). […]” for “plant).”

[7] = test system: Alopecurus myosuroides, blackgrass (ALOMY); test: as above; details: 360 h, 15 DAA, no safener, read-out: ALOMY percentage phytotoxicity
Experimental: as §4
as §5, with “plant). […]” for “plant).”

Avena fatua (AVEFA) [8] = test: Biological Example 1 glasshouse screen, post-emergence herbicidal activity; details: 312 h, application rate 250 g/ha, evaluated after 13 days, read-out: AVEFA percentage phytotoxicity
Experimental: as §1, §3

Lolium perenne (LOLPE) [9] = test: as above; details: 312 h, application rate 250 g/ha, evaluated after 13 days, read-out: LOLPE percentage phytotoxicity
Experimental: as §1, §3

Avena fatua (AVEFA) [10] = test: Biological Example 1 glasshouse screen, pre-emergence herbicidal activity; details: 312 h, application rate 250 g/ha, evaluated after 13 days, read-out: AVEFA percentage phytotoxicity
Experimental: as §1, §3

Lolium perenne (LOLPE) [11] = test: as above; details: 312 h, application rate 250 g/ha, evaluated after 13 days, read-out: LOLPE percentage phytotoxicity
Experimental: as §1, §3

[12] = test system: Echinochloa crus-galli (ECHCG); test: as above; details: 312 h, application rate 250 g/ha, evaluated after 13 days, read-out: ECHCG percentage phytotoxicity
Experimental: as §1, §2, §3

[13] = test system: Alopecurus myosuroides (ALOMY); test: as above; details: 312 h, application rate 250 g/ha, evaluated after 13 days, read-out: ALOMY percentage phytotoxicity
Experimental: as §1, §2, §3

Structure (SMILES) | pest or weed control at 250 g/ha [1] | pest or weed control at 250 g/ha [2] | pest or weed control at 30 g/ha ([3]; application rate 30 g/ha) | pest or weed control at 60 g/ha ([3]; application rate 60 g/ha) | pest or weed control at 30 g/ha ([4]; application rate 30 g/ha) | pest or weed control at 60 g/ha ([4]; application rate 60 g/ha) | pest or weed control at 30 g/ha ([5]; application rate 30 g/ha) | pest or weed control at 60 g/ha ([5]; application rate 60 g/ha) | pest or weed control at 30 g/ha ([6]; application rate 30 g/ha) | pest or weed control at 60 g/ha ([6]; application rate 60 g/ha) | pest or weed control at 30 g/ha ([7]; application rate 30 g/ha) | pest or weed control at 60 g/ha ([7]; application rate 60 g/ha) | pest or weed control at 250 g/ha (Avena fatua (AVEFA) [8]) | pest or weed control at 250 g/ha (Lolium perenne (LOLPE) [9]) | pest or weed control at 250 g/ha (Avena fatua (AVEFA) [10]) | pest or weed control at 250 g/ha (Lolium perenne (LOLPE) [11]) | pest or weed control at 250 g/ha [12] | pest or weed control at 250 g/ha [13]
CC#Cc1cc(C)c(C2=C(O)CC(Cc3cccc(F)n3)C2=O)c(C)c1 (centres unmarked) [Compound A-7] | 100% | 100% | 40% | 50% | 40% | 50% | 80% | 90% | 80% | 100% | 70% | 80% | 90% | 100% | – | – | – | –
CC#Cc1cc(C)c(C2=C(O)CC(Cc3cccc(C#N)n3)C2=O)c(C)c1 (centres unmarked) [Compound A-12] | 100% | 90% | – | – | – | – | – | – | – | – | – | – | 100% | 90% | 80% | 90% | 100% | 90%
CC#Cc1cc(C)c(C2=C(O)CC(Cc3ccc(C(C)=O)cn3)C2=O)c(C)c1 (centres unmarked) [Compound A-13] | 100% | 70% | – | – | – | – | – | – | – | – | – | – | 80% | 80% | 80% | 80% | 100% | 80%
C#CCC1CC(=O)C(c2c(C)cc(C#CC)cc2C)C1=O (centres unmarked) [Compound A-20] | 100% | 100% | – | – | – | – | – | – | – | – | – | – | 90% | 100% | 90% | 100% | 100% | 100%
CC#CCC1CC(=O)C(c2c(C)cc(C#CC)cc2C)C1=O (centres unmarked) [Compound A-21] | 100% | 100% | – | – | – | – | – | – | – | – | – | – | 80% | 100% | 60% | 100% | 100% | 100%
CC#Cc1cc(C)c(C2C(=O)CC(CC#CCl)C2=O)c(C)c1 (centres unmarked) [Compound A-22] | 100% | 60% | – | – | – | – | – | – | – | – | – | – | 0% | 80% | 80% | 90% | 100% | 90%
CC#Cc1cc(C)c(C2C(=O)CC(Cc3ccc(C#N)c(NC)n3)C2=O)c(C)c1 (centres unmarked) [Compound A-23, 6-[[3-(2,6-dimethyl-4-prop-1-ynyl-phenyl)-2,4-dioxo-cyclopentyl]methyl]-2-(methylamino)pyridine-3-carbonitrile] | 100% | 100% | – | – | – | – | – | – | – | – | – | – | 90% | 90% | 80% | 80% | 100% | 80%
